Measurements from patent US20130197023A1, “NEUROPROTECTION BY PHARMACOLOGICAL CHAPERONING OF NICOTINIC ACETYLCHOLINE RECEPTORS” (priority 2012, published 2013).
Where two headings read alike, the source gives them in different places.

Columns and labels:
ATF6 = conditions: 24 hr, 0.1 μM nicotine
Procedure: (§1) Cortical neurons were extracted from day 17 mouse embryos; 150,000 cells were plated in each 35 mm poly-l-lysine-coated glass bottom culture dish in a solution containing Neurobasal, B27, and Glutamax supplemented with 3% equine serum. On day four of culture, neurons were treated with 1 μM cytosine arabinoside. Neurons were maintained via 50% exchange with feeding medium (Neurobasal, B27, and Glutamax) twice per wk. Neurons were transfected five days after plating as follows: 1 μg of each nAChR subunit plasmid was incubated with 20 μg Nupherin Neuron in 400 μl of Neurobasal medium. 10 μL of Lipofectamine 2000 was separately incubated for 15 min in 400 μl Neurobasal medium. The two solutions were combined and incubated for 45 min at room temperature, then applied to cells. After 1 hr incubation, the total medium was replaced with fresh 2 ml medium with or without 0.1 μM nicotine. For immunostaining, cultures were fixed the following day with 4% paraformaldehyde (10 min), permeabilized in 0.02% Tris-buffered saline (TBS)-TritonX (15 min) and blocked in 10% goat serum (30 min). Following 2×TBS washes, the appropriate primary antibody in 1% goat serum was applied overnight at 4° C. The following day cultures were rinsed in TBS, and incubated in 1% goat serum containing secondary antibody (1:5000) (30 min). Cells were rinsed in TBS and imaged immediately.
(§2) Immunostaining employed ATF6 mouse monoclonal (Abcam, 11909, 1:50 dilution), rabbit polyclonal peIF2α and total eIF2α (Cell Signaling Technology, 9721 and 5324, both 1:200 dilution). Alexa 488-labeled secondary antibodies were used (Invitrogen, donkey anti-mouse and goat anti-rabbit).

eIF2α = conditions: 24 h, 0.1 μM nicotine; for whole cell and cytoplasmic peIF2α fluorescence: p=0.06
Procedure: as §1, §2

α4β2 nAChRs = α4β2 nAChRs (Mus musculus, UniProt O70174+Q9ERK7)
Description: For NFRET experiments, Neuro-2a cells were transfected with GaIT-eCFP+α4-mcherry+β2-eGFP subunits. GaIT-eCFP was used to label the TG, TGN (Schaub et al., 2006). Cells transfected with α4-mcherryβ2wt or α4wtβ2-eGFP nAChRs were included in every imaging session to control for pixel saturation and spectral bleedthrough. Live cells were imaged using an Eclipse C1si laser scanning confocal microscope. During image acquisition, cells were focused to a plane where the GaIT-eCFP fluorescence was best visualized. Images with emission spectra for eCFP, eGFP and mcherry were acquired in 5-nm bins between 470 and 620 nm. 439, 488 and 561 nm laser lines were used to excite eCFP, eGFP and mcherry respectively. Images were linearly unmixed using reference spectra for eCFP, eGFP and mcherry with emission maxima at 477, 508 and 608 nm. Reference spectra were acquired from Neuro-2a cells transfected with either GaIT-eCFP or α4-mcherryβ2wt or α4wtβ2-eGFP during the same imaging session. Linear unmixing was used to separate all three emission spectra from each image. Linearly unmixed images were compiled into donor spectral bleed-through stacks, acceptor spectral bleed-through stacks, and sample image stacks.
The PixFRET ImageJ plugin was used to determine the eGFP and mcherry spectral bleedthrough (BT) values and to calculate the net FRET (nF) (equation 1) and normalized FRET (NFRET) at each pixel. With the background and bleed-through corrections set, the nF for each pixel as described by equation 1 was calculated and the data were presented as 32-bit images. nF was divided by the square root of eGFP and mcherry intensities (equation 2) to obtain the normalized FRET (NFRET) value at each pixel. FRET normalization was used to control for large differences in fluorophore expression within subcellular regions and between different cells in a dish.
where, nF=net FRET, IFRET=mcherry sensitized emission with 488 nm excitation, IeGFP=eGFP emission with 488 nm excitation, BTeGFP=spectral bleedthrough of eGFP emission into mcherry emission spectra at 488 nm excitation, Imcherry=mcherry emission with 561 nm excitation and BTmcherry=spectral bleedthrough of mcherry emission into eGFP emission spectra at 561 nm excitation. IFRET, IeGFP and Imcherry were obtained from Neuro-2a cells transfected with GaIT-eCFP+α4-mcherry+β2-eGFP. BTeGFP and BTmcherry values were obtained from Neuro-2a cells transfected with α4-mcherry+β2wt and α4wt+β2-eGFP respectively.
Histograms of NFRET (x-axis) versus number of pixels (y-axis) of each imaged cell were compiled for either the whole cell sections or the TG, TGN ROIs, demarcated by intensity-based thresholding of GaIT-eCFP fluorescence. Frequency histograms obtained in this way (omitting values of zero) were merged for all cells in each experimental group and fitted to two Gaussian components such that a minimum goodness of fit (R^2) value of 0.995 was achieved. Ratios of area under the curve for the two Gaussian components with high and low mean NFRET values were used to determine changes in receptor stoichiometry between experimental groups: NFRET histograms were fitted to Gaussian components, yielding the total pixel area under either the A1 (low mean NFRET fit) or A2 (high mean NFRET fit) components. For quantitative measurements of stoichiometry, we compared the fractional area (FA) for the low NFRET component in each case as given by the following equation:
where, FA=fractional area, A1=area under the curve for low mean NFRET Gaussian component and A2=area under the curve for high mean NFRET Gaussian component.
Due to variability resulting from cell passage number, we imaged untreated control cells on the same day to compare and evaluate the effects of drug exposure on stoichiometry.

ER exit sites (ERES) = type: cell-based, mouse
Procedure: Mouse Neuro-2a cells were cultured using standard tissue culture techniques and maintained in 45% DMEM, 45% OptiMEM and 10% FBS. Plasmid concentrations used for transfection were as follows: 500 ng of each nAChR subunit, 75 ng of pCS2-mcherry, 250 ng of Sec24D constructs, 100 ng of pDsRed2-ER, 250 ng of GaIT-eCFP and 500 ng of ATF6-eGFP. 90,000 cells were plated in poly-D-lysine coated 35 mm MatTek glass bottom imaging dishes. The following day, plasmid DNA was mixed with cationic lipids by adding appropriate DNA concentrations to 4 μl of Expressfect transfection reagent in 200 μl DMEM final volume and incubated for 20 min at room temperature to form cationic lipid-DNA complexes. DMEM+DNA-lipid complexes were added to Neuro-2a cells in 1 ml of DMEM+10% FBS and incubated at 37° C. for 4 h. Dishes were rinsed 2× with DMEM, then filled with 3 ml of DMEM+10% FBS and incubated at 37° C. for 48 h. Nicotine, cytisine or DHβE was added at appropriate concentrations during the change of medium following 4 h incubation with Expressfect-plasmid DNA complexes.
Neuro-2a cells were co-transfected with 500 ng each of α4-mcherry and β2-wt nAChR subunits and 250 ng of the ERES marker, Sec24D-eGFP. Each cell was focused to a plane where the maximum ERES were visualized. Sequential images of eGFP and mcherry fluorescence were obtained and linearly unmixed. For quantification, ERES regions of interest (ROIs) were demarcated using intensity-based thresholding and counted for each cell using the particle analysis feature in ImageJ version 1.44 or later. The fluorescence intensity was obtained for each ERES body within the cells and average ERES intensity was plotted. Error bars for ERES measurements are ±standard error of mean (SEM) and p values are based on a 2-tailed t test.

[1] = octanol and water, PubChem Compound; cited from earlier work
α4β4 receptors = α4β4 receptors (Mus musculus, UniProt O70174+Q8R493); conditions: acute nicotine, 1 μM
Procedure: Additional experiments examined the effect of acute nicotine at a higher concentration (1 μM) on α4β4 receptors as well.

Neuro-2a cells = type: cell-based, mouse
Procedure: Neuro-2a cells were transfected with α4-eGFP (500 ng)+β2wt (500 ng)+GaIT-mcherry (250 ng) or pDSred2-ER (100 ng) and cells were incubated for 48 h with appropriate concentrations of nicotine, cytisine or DHβE.
In ImageJ, background was subtracted, and DSred2-ER fluorescence was thresholded and demarcated for each cell.

α4β2 nAChRs, sequence (O70174 31-629): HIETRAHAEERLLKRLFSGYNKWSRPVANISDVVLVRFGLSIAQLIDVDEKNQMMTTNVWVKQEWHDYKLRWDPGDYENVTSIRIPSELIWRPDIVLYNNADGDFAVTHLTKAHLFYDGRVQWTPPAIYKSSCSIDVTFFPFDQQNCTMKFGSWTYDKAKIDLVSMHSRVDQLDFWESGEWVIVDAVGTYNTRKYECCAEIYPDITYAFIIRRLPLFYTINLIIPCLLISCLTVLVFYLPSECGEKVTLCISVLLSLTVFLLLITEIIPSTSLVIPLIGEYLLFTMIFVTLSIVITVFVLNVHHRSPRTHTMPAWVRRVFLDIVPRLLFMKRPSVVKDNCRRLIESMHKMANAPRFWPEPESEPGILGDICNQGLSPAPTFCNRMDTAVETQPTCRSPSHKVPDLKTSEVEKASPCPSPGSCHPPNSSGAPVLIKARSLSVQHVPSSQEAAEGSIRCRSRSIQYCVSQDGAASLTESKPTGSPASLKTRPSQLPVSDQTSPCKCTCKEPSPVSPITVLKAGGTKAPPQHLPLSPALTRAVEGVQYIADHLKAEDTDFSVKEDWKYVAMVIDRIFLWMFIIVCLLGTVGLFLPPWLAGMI
α4β2 nAChRs, sequence (Q9ERK7 26-501): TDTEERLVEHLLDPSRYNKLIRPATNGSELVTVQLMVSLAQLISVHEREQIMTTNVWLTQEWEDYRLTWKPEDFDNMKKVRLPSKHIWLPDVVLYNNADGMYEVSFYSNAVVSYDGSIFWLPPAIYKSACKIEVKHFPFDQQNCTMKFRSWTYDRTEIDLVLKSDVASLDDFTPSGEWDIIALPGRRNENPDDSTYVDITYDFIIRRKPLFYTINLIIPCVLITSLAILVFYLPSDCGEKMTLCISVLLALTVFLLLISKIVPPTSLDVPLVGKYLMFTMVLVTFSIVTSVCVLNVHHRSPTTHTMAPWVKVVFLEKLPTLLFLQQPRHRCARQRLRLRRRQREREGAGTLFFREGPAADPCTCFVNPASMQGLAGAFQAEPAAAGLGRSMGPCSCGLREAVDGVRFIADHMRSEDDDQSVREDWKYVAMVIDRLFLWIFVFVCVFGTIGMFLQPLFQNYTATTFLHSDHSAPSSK
α4β4 receptors, sequence (O70174 31-629): as the sequence (O70174 31-629) above
α4β4 receptors, sequence (Q8R493 21-495): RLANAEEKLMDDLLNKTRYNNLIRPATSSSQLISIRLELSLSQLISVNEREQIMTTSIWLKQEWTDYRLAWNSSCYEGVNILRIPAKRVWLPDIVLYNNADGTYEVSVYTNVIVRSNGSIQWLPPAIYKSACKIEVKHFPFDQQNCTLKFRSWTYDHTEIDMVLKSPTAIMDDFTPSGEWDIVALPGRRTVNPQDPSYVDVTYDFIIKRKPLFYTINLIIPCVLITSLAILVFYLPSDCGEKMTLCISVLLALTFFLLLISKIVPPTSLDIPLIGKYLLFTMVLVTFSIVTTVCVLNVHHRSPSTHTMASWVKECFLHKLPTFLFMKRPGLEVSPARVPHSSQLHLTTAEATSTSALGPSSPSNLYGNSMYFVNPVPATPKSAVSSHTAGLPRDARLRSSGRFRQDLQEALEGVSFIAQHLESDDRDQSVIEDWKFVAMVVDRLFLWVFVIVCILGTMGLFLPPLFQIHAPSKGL

In the case of `CN1CCCC1c1cccnc1` (stereo not shown) [Nicotine, nicotine], the “reduction in the nucleus to whole cell ATF6 fluorescence ratio” value (ATF6; compared to untreated cells) is reported as 50%, the “α4-mcherryβ2wt-expressing cells showing nuclear ATF6 localization” value (ATF6; 56% in the absence of nicotine) is reported as 14% and the “total eIF2α fluorescence within the cytoplasm or nucleus” value (eIF2α) is reported as “did not affect”. For the same compound, the “total eIF2α fluorescence within the cytoplasm or nucleus” value (eIF2α; listed as nicotine) was “without affecting”, the “whole cell and cytoplasmic peIF2α fluorescence” value (eIF2α) was “near significant reduction” and the “whole cell and cytoplasmic peIF2α fluorescence” value (eIF2α; listed as nicotine) was “trend towards reduction”. The “TG+TGN FA (fractional area of low NFRET component)” value (α4β2 nAChRs) was 0.80, the “whole cell FA (fractional area of low NFRET component)” value (α4β2 nAChRs) was 0.74 and the “increase in ERES fluorescence / formation of ERES” value (ER exit sites (ERES)) was about 2 fold. For the same compound, the logP [1] was 1.1, the “Fnic/F0 (SEP fluorescence, receptors in the membrane)” value (α4β4 receptors) was 65%+/−0.03 and the “effect on peripheral ER area (in words)” value (Neuro-2a cells) was “increased”. The “increase in the average ER area” value (Neuro-2a cells) was 1.7 fold.
